Each block holds one compound with its values, some of them ahead of it. Activity calls are given as the source filed them.
Columns and labels:
Ion channel NompC = Ion channel NompC (Danio rerio, UniProt Q7T1G6); test: Fluorescence counterscreen assay for TRPML3 agonists: dose response cell-based high-throughput screening assay to identify agonists of the transient receptor potential channel N1 (TRPN1). [Related pubchem assays: 1526, 1424, 1448 ]; format: functional
Mucolipin-3 = Mucolipin-3 (Homo sapiens, UniProt Q8TDD5); test: Dose response cell-based high-throughput screening assay for agonists of the transient receptor potential channel ML3 (TRPML3). [Related pubchem assays: 1526, 1424, 1448 ]; format: functional
Sequence of Mucolipin-3 (Q8TDD5 whole entry): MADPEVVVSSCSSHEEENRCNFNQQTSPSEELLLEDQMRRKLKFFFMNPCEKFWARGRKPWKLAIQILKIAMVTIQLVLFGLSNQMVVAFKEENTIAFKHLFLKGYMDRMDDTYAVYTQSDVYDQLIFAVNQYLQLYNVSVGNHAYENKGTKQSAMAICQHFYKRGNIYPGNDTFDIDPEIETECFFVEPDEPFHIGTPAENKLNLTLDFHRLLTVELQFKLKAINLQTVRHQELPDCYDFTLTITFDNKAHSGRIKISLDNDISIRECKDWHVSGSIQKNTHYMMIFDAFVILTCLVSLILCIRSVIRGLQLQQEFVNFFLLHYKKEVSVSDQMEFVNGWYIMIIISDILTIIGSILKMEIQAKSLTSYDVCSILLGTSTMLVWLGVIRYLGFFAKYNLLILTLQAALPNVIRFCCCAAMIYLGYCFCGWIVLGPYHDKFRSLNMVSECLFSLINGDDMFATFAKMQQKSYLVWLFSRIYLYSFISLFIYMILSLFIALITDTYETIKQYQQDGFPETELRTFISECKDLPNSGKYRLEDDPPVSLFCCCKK

[1] = target: Aryl hydrocarbon receptor (Homo sapiens, UniProt P35869); test: Luminescence-based cell-based high throughput dose response assay for activators of the Aryl Hydrocarbon Receptor (AHR). [Related pubchem assays: 2796 (Primary screen (AHR activators in singlicate)), 2845 (Confirmation screen (AHR activators in triplicate)), 434939 (Counterscreen (PXR activators in triplicate)), 2804 (Summary (AHR activators))]; format: ADME
Sequence of Aryl hydrocarbon receptor (P35869 whole entry): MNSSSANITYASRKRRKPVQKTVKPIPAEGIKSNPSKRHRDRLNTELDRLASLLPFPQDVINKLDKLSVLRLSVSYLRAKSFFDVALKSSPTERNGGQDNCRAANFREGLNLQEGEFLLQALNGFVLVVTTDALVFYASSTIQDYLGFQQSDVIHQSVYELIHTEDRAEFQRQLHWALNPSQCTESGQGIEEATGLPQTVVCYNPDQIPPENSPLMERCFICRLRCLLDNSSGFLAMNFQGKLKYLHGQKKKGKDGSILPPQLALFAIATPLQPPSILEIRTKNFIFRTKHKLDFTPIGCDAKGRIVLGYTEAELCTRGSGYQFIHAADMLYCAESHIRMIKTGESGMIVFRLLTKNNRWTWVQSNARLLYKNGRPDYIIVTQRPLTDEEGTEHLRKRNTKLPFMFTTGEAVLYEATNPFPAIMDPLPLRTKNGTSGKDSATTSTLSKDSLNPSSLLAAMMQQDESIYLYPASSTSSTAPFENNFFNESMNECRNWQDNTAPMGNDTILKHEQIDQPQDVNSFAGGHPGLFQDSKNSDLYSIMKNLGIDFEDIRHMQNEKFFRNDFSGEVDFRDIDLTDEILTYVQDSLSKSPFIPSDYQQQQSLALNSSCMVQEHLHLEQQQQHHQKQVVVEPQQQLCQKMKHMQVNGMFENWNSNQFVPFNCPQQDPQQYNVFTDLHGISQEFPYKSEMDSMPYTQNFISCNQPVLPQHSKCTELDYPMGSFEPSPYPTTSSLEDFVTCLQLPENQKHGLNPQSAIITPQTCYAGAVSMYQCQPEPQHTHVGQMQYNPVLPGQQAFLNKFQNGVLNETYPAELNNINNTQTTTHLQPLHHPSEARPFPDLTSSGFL

[2] = inhibitors of Vif binding to APOBEC3G peptide, primary screen, biochemical, TR-FRET, GST-Vif 1-94, biotin-A3G peptide, dose response retest (AID 1117319); format: functional;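 also: TR-FRET signal of purified GST-Vif binding a biotinylated A3G peptide; inhibitors lower the FRET signal by blocking Vif and A3G binding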
[3] = target: T1, Heat shock factor protein 1 (Mus musculus, UniProt P38532); test: inhibition of MG132-induced HSE-luciferase signal, confirmation, cell-based, NIH3T3, luminescence, dose retest (AID 2382); format: functional;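 also: NIH3T3 fibroblasts with HSF1-driven luciferase reporter stressed by proteasome inhibitor MG132; luminescence from HSF1-driven luciferase expression after 8 hours of MG132 stress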
T1 sequence (P38532 whole entry): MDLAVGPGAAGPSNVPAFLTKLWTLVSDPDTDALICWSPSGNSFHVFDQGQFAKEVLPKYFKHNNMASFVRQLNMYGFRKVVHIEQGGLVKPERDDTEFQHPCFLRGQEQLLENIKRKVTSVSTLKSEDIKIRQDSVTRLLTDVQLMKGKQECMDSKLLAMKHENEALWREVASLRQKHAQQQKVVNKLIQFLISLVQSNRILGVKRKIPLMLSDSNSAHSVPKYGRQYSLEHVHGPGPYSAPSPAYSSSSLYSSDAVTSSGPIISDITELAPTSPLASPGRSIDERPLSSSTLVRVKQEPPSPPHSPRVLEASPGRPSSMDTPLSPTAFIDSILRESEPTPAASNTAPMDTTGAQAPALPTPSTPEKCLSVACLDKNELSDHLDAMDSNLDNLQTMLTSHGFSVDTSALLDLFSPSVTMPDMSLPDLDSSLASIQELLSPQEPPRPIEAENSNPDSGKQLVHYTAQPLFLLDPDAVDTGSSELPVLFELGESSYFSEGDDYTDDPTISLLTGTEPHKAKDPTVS

[4] = target: T2, Microphthalmia-associated transcription factor (Homo sapiens, UniProt O75030); test: TRPM1 promoter luciferase signal decrease, dose response, MITF inhibitor project, cell-based, SK-MEL-5, cherry-picked, set 3 (AID 493073); format: functional
T2 sequence (O75030 whole entry): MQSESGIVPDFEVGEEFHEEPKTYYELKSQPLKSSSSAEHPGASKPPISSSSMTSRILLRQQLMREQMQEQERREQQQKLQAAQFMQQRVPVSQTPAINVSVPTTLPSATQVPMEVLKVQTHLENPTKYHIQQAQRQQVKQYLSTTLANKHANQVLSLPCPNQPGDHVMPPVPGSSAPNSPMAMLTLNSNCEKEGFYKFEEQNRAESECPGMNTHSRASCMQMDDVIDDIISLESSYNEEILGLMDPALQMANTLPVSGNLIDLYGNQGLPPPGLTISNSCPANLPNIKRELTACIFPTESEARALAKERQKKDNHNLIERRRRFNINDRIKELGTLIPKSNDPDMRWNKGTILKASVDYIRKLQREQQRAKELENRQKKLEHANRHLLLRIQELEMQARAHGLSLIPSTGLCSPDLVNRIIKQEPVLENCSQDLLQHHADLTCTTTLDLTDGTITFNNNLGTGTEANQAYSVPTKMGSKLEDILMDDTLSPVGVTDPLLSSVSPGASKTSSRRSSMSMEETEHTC

[5] = CEM21 lymphoblast cell cytotoxicity, dose response, cytotoxicity control for viral fusion inhibitor project, CellTiter-Glo luminescence, cherry-picked (AID 652042); format: functional, cell-based;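 also: potency for signal decrease meaning cytotoxicity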
[6] = THP-1 cell cytotoxicity, dose response, cytotoxicity control for Vif-APOBEC3G degradation inhibitor project, THP-1 cells (AID 1117359); format: functional; conditions: Human immunodeficiency virus 1, THP-1
[7] = off-target signal loss in HeLa-CEM21 co-culture – HeLa F-luc CTL cells, cherry-picked, counter-screen for HIV-1 Env fusion inhibitor project, dose response (AID 652040); format: functional, cell-based;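 also: potency for signal decrease marking cytotoxic or nonspecific inhibition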
[8] = ZM109 Env clade C HIV-1 fusion inhibitors, dose response, HeLa effector, CEM target cells, luciferase, cherry-pick (AID 652058); format: functional, cell-based
Protein Tat = Protein Tat (Human immunodeficiency virus type 1 group M subtype B (isolate HXB2)(HIV-1), UniProt P04608); format: functional;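 also: tat binding to TAR RNA read out by fluorescence polarization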
Sequence of Protein Tat (P04608 whole entry, the tested form may be a part): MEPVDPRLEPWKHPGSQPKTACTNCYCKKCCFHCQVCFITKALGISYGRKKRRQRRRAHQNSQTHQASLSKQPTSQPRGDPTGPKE

[9] = inhibitors of HIV Env-driven cell fusion, dose response, cherry-pick (AID 652057); format: functional, cell-based
[10] = inhibitors of clade B AD8 Env fusion, dose response, cell-based, cherry-pick (AID 652062); format: functional;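 also: luciferase signal from cell-cell fusion driven by HIV-1 clade B AD8 Env; potency is for inhibitors of fusion seen as a drop in luminescence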
Cytochrome P450 2C19 [11] = target: T3, Cytochrome P450 2C19 (Homo sapiens, UniProt P33261); test: Cytochrome panel assay with activity outcomes. Panel member name: p450-cyp2c19 Compounds with AC50 equal or less than 10 uM are considered active; format: functional; conditions: read-out: AC50
T3 sequence (P33261 whole entry): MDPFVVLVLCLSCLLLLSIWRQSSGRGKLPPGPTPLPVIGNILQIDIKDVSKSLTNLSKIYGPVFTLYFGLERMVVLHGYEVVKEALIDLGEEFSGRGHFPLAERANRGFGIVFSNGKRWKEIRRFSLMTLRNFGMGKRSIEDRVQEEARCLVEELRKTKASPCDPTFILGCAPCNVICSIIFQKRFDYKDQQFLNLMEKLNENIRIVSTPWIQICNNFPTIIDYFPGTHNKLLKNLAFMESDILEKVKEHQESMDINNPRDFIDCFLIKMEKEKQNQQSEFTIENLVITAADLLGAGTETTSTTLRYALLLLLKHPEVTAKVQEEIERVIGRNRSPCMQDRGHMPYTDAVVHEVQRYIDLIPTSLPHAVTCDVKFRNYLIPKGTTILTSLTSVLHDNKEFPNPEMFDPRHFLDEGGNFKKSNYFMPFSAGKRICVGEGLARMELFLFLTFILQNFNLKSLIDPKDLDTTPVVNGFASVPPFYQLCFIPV

Cytochrome P450 2C9 = Cytochrome P450 2C9 (Homo sapiens, UniProt P11712)
Sequence of Cytochrome P450 2C9 (P11712 whole entry): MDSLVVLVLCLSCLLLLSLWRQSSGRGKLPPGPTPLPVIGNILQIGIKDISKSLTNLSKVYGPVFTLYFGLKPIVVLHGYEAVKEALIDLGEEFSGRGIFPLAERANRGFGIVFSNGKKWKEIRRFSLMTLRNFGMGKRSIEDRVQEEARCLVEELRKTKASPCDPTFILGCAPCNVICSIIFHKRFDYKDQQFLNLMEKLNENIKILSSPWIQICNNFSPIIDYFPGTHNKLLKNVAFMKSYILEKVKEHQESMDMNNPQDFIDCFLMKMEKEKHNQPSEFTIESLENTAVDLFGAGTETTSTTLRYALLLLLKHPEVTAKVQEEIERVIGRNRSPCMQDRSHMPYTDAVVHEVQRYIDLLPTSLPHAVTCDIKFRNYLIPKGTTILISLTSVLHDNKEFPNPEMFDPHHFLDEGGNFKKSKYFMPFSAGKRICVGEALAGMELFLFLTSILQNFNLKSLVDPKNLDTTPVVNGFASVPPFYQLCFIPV

Cytochrome P450 2C19 [12] = target: T3, Cytochrome P450 2C19; test: qHTS Assay for Inhibitors and Substrates of Cytochrome P450 2C19. [Related pubchem assays: 410 ]; format: ADME; conditions: read-out: Potency

Sequence of Ion channel NompC (Q7T1G6 whole entry): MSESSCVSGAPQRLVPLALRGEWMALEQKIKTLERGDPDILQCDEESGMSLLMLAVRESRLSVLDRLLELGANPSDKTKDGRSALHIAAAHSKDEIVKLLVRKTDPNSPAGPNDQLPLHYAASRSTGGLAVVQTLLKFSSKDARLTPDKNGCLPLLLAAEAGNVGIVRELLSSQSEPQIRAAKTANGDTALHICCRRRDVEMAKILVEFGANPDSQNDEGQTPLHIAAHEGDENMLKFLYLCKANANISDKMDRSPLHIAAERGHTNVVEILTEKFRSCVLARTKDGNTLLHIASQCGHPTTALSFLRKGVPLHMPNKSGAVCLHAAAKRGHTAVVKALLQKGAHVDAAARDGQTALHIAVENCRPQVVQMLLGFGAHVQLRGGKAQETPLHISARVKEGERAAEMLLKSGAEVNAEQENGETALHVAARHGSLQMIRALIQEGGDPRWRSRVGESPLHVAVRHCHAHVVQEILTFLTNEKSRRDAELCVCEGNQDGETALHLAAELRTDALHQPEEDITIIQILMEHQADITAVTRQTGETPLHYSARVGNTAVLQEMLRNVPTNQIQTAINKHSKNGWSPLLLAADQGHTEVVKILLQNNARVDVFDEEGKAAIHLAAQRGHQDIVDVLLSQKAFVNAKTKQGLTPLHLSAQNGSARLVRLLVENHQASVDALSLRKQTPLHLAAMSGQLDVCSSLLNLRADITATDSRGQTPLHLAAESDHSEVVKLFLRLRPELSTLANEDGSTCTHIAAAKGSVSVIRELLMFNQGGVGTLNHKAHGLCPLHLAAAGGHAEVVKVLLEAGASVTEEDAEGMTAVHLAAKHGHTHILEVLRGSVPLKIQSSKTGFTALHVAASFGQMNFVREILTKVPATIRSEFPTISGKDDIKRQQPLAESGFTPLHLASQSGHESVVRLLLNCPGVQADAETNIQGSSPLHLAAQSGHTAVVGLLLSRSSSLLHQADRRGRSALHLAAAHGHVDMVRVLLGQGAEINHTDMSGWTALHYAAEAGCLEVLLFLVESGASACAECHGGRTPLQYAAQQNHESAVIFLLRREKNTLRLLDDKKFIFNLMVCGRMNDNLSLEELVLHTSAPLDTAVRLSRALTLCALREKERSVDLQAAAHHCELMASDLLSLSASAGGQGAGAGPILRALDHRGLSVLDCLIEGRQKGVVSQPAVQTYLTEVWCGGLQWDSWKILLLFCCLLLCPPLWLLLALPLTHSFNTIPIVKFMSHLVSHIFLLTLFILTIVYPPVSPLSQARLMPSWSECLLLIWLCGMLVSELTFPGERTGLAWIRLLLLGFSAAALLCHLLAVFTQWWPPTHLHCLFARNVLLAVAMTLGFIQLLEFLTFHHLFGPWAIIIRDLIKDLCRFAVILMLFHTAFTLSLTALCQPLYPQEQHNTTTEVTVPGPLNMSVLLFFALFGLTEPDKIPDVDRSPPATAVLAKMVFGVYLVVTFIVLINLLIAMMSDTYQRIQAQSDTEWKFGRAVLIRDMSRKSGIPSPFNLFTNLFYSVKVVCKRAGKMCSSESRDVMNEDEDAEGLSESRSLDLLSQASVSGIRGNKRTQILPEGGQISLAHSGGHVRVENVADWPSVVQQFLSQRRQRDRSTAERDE

EC50 [1]: 1.17 µM (active)
SMILES: Cc1c(-c2cc[nH]n2)cc(NC(=O)c2ccc(Cl)cc2)c(=O)n1N

IC50 [2]: > 100 µM (active)
SMILES: COc1cc(C(=O)Nc2cccc(-c3nc4ncccc4o3)c2C)cc(OC)c1OC

More lines, now with the values behind:

SMILES: CC1CCN(S(=O)(=O)c2ccc3ccccc3c2)CC1
EC50 (Ion channel NompC): > 29.9 µM (not active)
EC50 (Mucolipin-3): 2.83 µM (active)

SMILES: CN(c1ccc2nc3ccccc3c(=O)n2n1)C1CCCCC1
EC50 [3]: < 0.16 µM (active)
AC50 [4]: 1.29 µM (active)
AC50 [5]: 26.9 µM (active)
CC50 [6]: 36.6 µM (active)
AC50 [7]: 6.41 µM (active)
AC50 [8]: 31.1 µM (active)
IC50 (Protein Tat): > 100 µM (active)
AC50 [9]: 2.13 µM (active)
AC50 [10]: 6.5 µM (active)

SMILES: O=C(C1CCCCC1)N1CC(=O)N2CCc3ccccc3[C@@H]2C1 [PRAZIQUANTEL, (R)-]
AC50 (Cytochrome P450 2C19 [11]): 5.01 µM (inconclusive)
AC50 (Cytochrome P450 2C9): inconclusive
AC50 (Cytochrome P450 2C19 [12]): 25.1 µM (inconclusive)

From ChEMBL document CHEMBL1201862, “PubChem BioAssay data set” (2004)
